# Molecular target: OGG1 (Homo sapiens (Human), UniProt O15527)
# Experiment: In vitro OGG1 activity assay
# Format: biochemical
# Details: 800 pM OGG1 enzyme, 2 nM human APEX1, 10 nM 8-oxoA:C substrate
# In short: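 Read-out is fluorescein fluorescence, with compounds in DMSO added first, then enzyme and substrate. OGG1 excises its substrate base from a quenched fluorophore-labelled duplex, and surplus APEX1 cuts the resulting apurinic site. The duplex then melts and fluorescence rises in proportion to glycosylase activity.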
# OGG1, sequence (O15527 whole entry): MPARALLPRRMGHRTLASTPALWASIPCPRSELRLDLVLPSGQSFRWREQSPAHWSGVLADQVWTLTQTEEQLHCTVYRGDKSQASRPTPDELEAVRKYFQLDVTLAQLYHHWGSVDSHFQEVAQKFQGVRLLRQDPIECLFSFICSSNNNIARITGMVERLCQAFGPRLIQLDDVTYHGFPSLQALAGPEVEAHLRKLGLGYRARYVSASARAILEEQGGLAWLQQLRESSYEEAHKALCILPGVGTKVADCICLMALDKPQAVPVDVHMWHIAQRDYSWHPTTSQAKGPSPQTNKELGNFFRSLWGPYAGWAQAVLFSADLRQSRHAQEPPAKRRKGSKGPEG
row,IC50 [nM],Structure (SMILES)
1,3.94,"CNC(=O)c1cccc2c1[nH]c(=O)n2[C@H]1CC[C@@H](C(=O)Nc2ccc(C)c(OC)c2)CC1 [Example 259, N-Methyl-2-oxo-1-[cis-4-[(3-methoxy-4-methylphenyl)carbamoyl]cyclohexyl]-2,3-dihydro-1H-1,3-benzodiazole-4-carboxamide]"
2,343,"COc1cc(NC(=O)[C@H]2CC[C@@H](n3c(=O)[nH]c4c(C(=O)N(C)C)cccc43)CC2)ccc1C [Example 260, N,N-Dimethyl-2-oxo-1-[cis-4-[(3-methoxy-4-methylphenyl)carbamoyl]cyclohexyl]-2,3-dihydro-1H-1,3-benzodiazole-4-carboxamide]"
3,68.3,"COc1cc(NC(=O)[C@H]2CC[C@@H](n3c(=O)[nH]c4c(C(=O)N5CCNCC5)cccc43)CC2)ccc1C [Example 261, Cis-N-(3-methoxy-4-methylphenyl)-4-[2-oxo-4-(piperazine-1-carbonyl)-2,3-dihydro-1H-1,3-benzodiazol-1-yl]cyclohexane-1-carboxamide]"
4,0.28,"COc1cc(NC(=O)[C@H]2CC[C@@H](n3c(=O)[nH]c4c(C(=O)NCCCN)cccc43)CC2)ccc1C [Example 265, N-(3-Aminopropyl)-2-oxo-1-[cis-4-[(3-methoxy-4-methylphenyl)carbamoyl]cyclohexyl]-2,3-dihydro-1H-1,3-benzodiazole-4-carboxamide]"
5,8.16,"CNCCN(C)C(=O)c1cccc2c1[nH]c(=O)n2[C@H]1CC[C@@H](C(=O)Nc2ccc(C)c(OC)c2)CC1 [Example 266, N-Methyl-N-[2-(methylamino)ethyl]-2-oxo-1-[cis-4-[(3-methoxy-4-methylphenyl)carbamoyl]cyclohexyl]-2,3-dihydro-1H-1,3-benzodiazole-4-carboxamide]"
6,171,"COc1cc(NC(=O)[C@H]2CC[C@@H](n3c(=O)[nH]c4c(C(=O)N5CCN(CCN(C)C)CC5)cccc43)CC2)ccc1C [Example 275, Cis-4-(4-{4-[2-(dimethylamino)ethyl]piperazine-1-carbonyl}-2-oxo-2,3-dihydro-1H-1,3-benzodiazol-1-yl)-N-(3-methoxy-4-methylphenyl)cyclohexane-1-carboxamide]"
7,221,"COc1cc(NC(=O)[C@H]2CC[C@@H](n3c(=O)[nH]c4c(C(=O)N5CCCC5C(N)=O)cccc43)CC2)ccc1C (stereo partly drawn) [Example 278, 1-{2-Oxo-1-[cis-4-[(3-methoxy-4-methylphenyl)carbamoyl]cyclohexyl]-2,3-dihydro-1H-1,3-benzodiazole-4-carbonyl}pyrrolidine-2-carboxamide]"
8,74.5,"COc1cc(NC(=O)[C@H]2CC[C@@H](n3c(=O)[nH]c4c(Nc5ncccn5)cccc43)CC2)ccc1C [Example 279, Cis-N-(3-methoxy-4-methylphenyl)-4-{2-oxo-4-[(pyrimidin-2-yl)amino]-2,3-dihydro-1H-1,3-benzodiazol-1-yl}cyclohexane-1-carboxamide]"
9,1.73,"COc1cc(NC(=O)[C@H]2CC[C@@H](n3c(=O)[nH]c4c(NC(=O)CCN)cccc43)CC2)ccc1C [Example 284, Cis-4-[4-(3-aminopropanamido)-2-oxo-2,3-dihydro-1H-1,3-benzodiazol-1-yl]-N-(3-methoxy-4-methylphenyl)cyclohexane-1-carboxamide]"
10,27.1,"COc1cc(NC(=O)[C@H]2CC[C@@H](n3c(=O)[nH]c4c(NC(=O)[C@@H]5CCN5)cccc43)CC2)ccc1C [Example 287, (2S)—N-{2-Oxo-1-[cis-4-[(3-methoxy-4-methylphenyl)carbamoyl]cyclohexyl]-2,3-dihydro-1H-1,3-benzodiazol-4-yl}azetidine-2-carboxamide]"
11,23,"COc1cc(NC(=O)[C@H]2CC[C@@H](n3c(=O)[nH]c4c(NC(C)=O)cccc43)CC2)ccc1C [Example 288, Cis-4-(4-acetamido-2-oxo-2,3-dihydro-1H-1,3-benzodiazol-1-yl)-N-(3-methoxy-4-methylphenyl)cyclohexane-1-carboxamide]"
12,239,"CC(=O)Nc1cccc2c1[nH]c(=O)n2[C@H]1CC[C@@H](C(=O)Nc2ccc3cc[nH]c3c2)CC1 [Example 290, Cis-4-(4-acetamido-2-oxo-2,3-dihydro-1H-1,3-benzodiazol-1-yl)-N-(1H-indol-6-yl)cyclohexane-1-carboxamide]"
13,9.53,"COc1cc(NC(=O)[C@H]2CC[C@@H](n3c(=O)[nH]c4c(C(N)=O)cccc43)CC2)ccc1C [Example 291, 2-Oxo-1-[cis-4-[(3-methoxy-4-methylphenyl)carbamoyl]cyclohexyl]-2,3-dihydro-1H-1,3-benzodiazole-4-carboxamide]"
14,0.37,"COc1cc(NC(=O)[C@H]2CC[C@@H](n3c(=O)[nH]c4c(C(=O)NCC5COCCN5)cccc43)CC2)ccc1C (stereo partly drawn) [Example 292, N-[(Morpholin-3-yl)methyl]-2-oxo-1-[cis-4-[(3-methoxy-4-methylphenyl)carbamoyl]cyclohexyl]-2,3-dihydro-1H-1,3-benzodiazole-4-carboxamide]"
15,1.42,"COc1cc(NC(=O)[C@H]2CC[C@@H](n3c(=O)[nH]c4c(C(=O)NC5CNC5)cccc43)CC2)ccc1C [Example 293, N-(Azetidin-3-yl)-2-oxo-1-[cis-4-[(3-methoxy-4-methylphenyl)carbamoyl]cyclohexyl]-2,3-dihydro-1H-1,3-benzodiazole-4-carboxamide]"
16,1.21,"COc1cc(NC(=O)[C@H]2CC[C@@H](n3c(=O)[nH]c4c(C(=O)NC5CCNC5)cccc43)CC2)ccc1C (stereo partly drawn) [Example 294, 2-Oxo-N-(pyrrolidin-3-yl)-1-[cis-4-[(3-methoxy-4-methylphenyl)carbamoyl]cyclohexyl]-2,3-dihydro-1H-1,3-benzodiazole-4-carboxamide]"
17,10.6,"COc1cc(NC(=O)[C@H]2CC[C@@H](n3c(=O)[nH]c4c(N5CCC(N)CC5)cccc43)CC2)ccc1C [Example 303, Cis-4-[4-(4-aminopiperidin-1-yl)-2-oxo-2,3-dihydro-1H-1,3-benzodiazol-1-yl]-N-(3-methoxy-4-methylphenyl)cyclohexane-1-carboxamide]"
18,56.3,"COc1cc(NC(=O)[C@H]2CC[C@@H](n3c(=O)[nH]c4c(N5Cc6cn[nH]c6C5)cccc43)CC2)ccc1C [Example 314, Cis-N-(3-methoxy-4-methylphenyl)-4-(2-oxo-4-{1H,4H,5H,6H-pyrrolo[3,4-c]pyrazol-5-yl}-2,3-dihydro-1H-1,3-benzodiazol-1-yl)cyclohexane-1-carboxamide]"
19,759,"CC(=O)Nc1cccc2c1[nH]c(=O)n2[C@H]1CC[C@@H](C(=O)Nc2ccc3[nH]ncc3c2)CC1 [Example 315, Cis-4-(4-acetamido-2-oxo-2,3-dihydro-1H-1,3-benzodiazol-1-yl)-N-(1H-indazol-5-yl)cyclohexane-1-carboxamide]"
20,38,"COC(=O)NC1CCN(c2cccc3c2[nH]c(=O)n3[C@H]2CC[C@@H](C(=O)Nc3ccc(C)c(OC)c3)CC2)C1 (stereo partly drawn) [Example 316, Methyl N-(1-{2-oxo-1-[cis-4-[(3-methoxy-4-methylphenyl)carbamoyl]cyclohexyl]-2,3-dihydro-1H-1,3-benzodiazol-4-yl}pyrrolidin-3-yl)carbamate]"
21,39.1,"COc1cc(NC(=O)[C@H]2CC[C@@H](n3c(=O)[nH]c4c(N5CCC(NC(=O)C(C)(C)O)C5)cccc43)CC2)ccc1C (stereo partly drawn) [Example 317, Cis-4-{4-[3-(2-hydroxy-2-methylpropanamido)pyrrolidin-1-yl]-2-oxo-2,3-dihydro-1H-1,3-benzodiazol-1-yl}-N-(3-methoxy-4-methylphenyl)cyclohexane-1-carboxamide]"
22,79.5,"COc1cc(NC(=O)[C@H]2CC[C@@H](n3c(=O)[nH]c4c(NC(=O)c5nccn5C)cccc43)CC2)ccc1C [Example 318, 1-Methyl-N-{2-oxo-1-[cis-4-[(3-methoxy-4-methylphenyl)carbamoyl]cyclohexyl]-2,3-dihydro-1H-1,3-benzodiazol-4-yl}-1H-imidazole-2-carboxamide]"
23,20.3,"COc1cc(NC(=O)[C@H]2CC[C@@H](n3c(=O)[nH]c4c(NC(=O)c5cn(C)cn5)cccc43)CC2)ccc1C [Example 319, 1-Methyl-N-{2-oxo-1-[cis-4-[(3-methoxy-4-methylphenyl)carbamoyl]cyclohexyl]-2,3-dihydro-1H-1,3-benzodiazol-4-yl}-1H-imidazole-4-carboxamide]"
24,22,"COc1cc(NC(=O)[C@H]2CC[C@@H](n3c(=O)[nH]c4c(NC(=O)c5coc(N)n5)cccc43)CC2)ccc1C [Example 320, 2-Amino-N-{2-oxo-1-[cis-4-[(3-methoxy-4-methylphenyl)carbamoyl]cyclohexyl]-2,3-dihydro-1H-1,3-benzodiazol-4-yl}-1,3-oxazole-4-carboxamide]"
25,5.75,"COc1cc(NC(=O)[C@H]2CC[C@@H](n3c(=O)[nH]c4c(NC(=O)c5ccnn5C)cccc43)CC2)ccc1C [Example 321, 1-Methyl-N-{2-oxo-1-[cis-4-[(3-methoxy-4-methylphenyl)carbamoyl]cyclohexyl]-2,3-dihydro-1H-1,3-benzodiazol-4-yl}-1H-pyrazole-5-carboxamide]"
26,2630,"O=c1[nH]c2ccccc2n1[C@H]1CC[C@@H](C(=O)Nc2ccc(F)cc2)CC1 [Example 322, Cis-N-(4-fluorophenyl)-4-(2-oxo-2,3-dihydro-1H-benzo[d]imidazol-1-yl)cyclohexanecarboxamide]"
27,226,"COc1cc(NC(=O)[C@H]2CC[C@@H](n3c(=O)[nH]c4c(NCC(F)(F)F)cccc43)CC2)ccc1C [Example 323, Cis-N-(3-methoxy-4-methylphenyl)-4-{2-oxo-4-[(2,2,2-trifluoroethyl)amino]-2,3-dihydro-1H-1,3-benzodiazol-1-yl}cyclohexane-1-carboxamide]"
28,96.9,"COc1cc(NC(=O)[C@H]2CC[C@@H](n3c(=O)[nH]c4c(NCC(F)F)cccc43)CC2)ccc1C [Example 324, Cis-4-{4-[(2,2-difluoroethyl)amino]-2-oxo-2,3-dihydro-1H-1,3-benzodiazol-1-yl}-N-(3-methoxy-4-methylphenyl)cyclohexane-1-carboxamide]"
